{
  "source": "patent US11028052B2",
  "about": "“Compounds useful as modulators of TRPM8” (Firmenich Incorporated, priority 2013, dated 2021)",
  "key": {"hTRPM8": {"biological_target": "T1, hTRPM8 (Homo sapiens, UniProt Q7Z2W7)", "T1 construct": "expressed in transfected cells", "T1 sequence (Q7Z2W7 whole entry)": "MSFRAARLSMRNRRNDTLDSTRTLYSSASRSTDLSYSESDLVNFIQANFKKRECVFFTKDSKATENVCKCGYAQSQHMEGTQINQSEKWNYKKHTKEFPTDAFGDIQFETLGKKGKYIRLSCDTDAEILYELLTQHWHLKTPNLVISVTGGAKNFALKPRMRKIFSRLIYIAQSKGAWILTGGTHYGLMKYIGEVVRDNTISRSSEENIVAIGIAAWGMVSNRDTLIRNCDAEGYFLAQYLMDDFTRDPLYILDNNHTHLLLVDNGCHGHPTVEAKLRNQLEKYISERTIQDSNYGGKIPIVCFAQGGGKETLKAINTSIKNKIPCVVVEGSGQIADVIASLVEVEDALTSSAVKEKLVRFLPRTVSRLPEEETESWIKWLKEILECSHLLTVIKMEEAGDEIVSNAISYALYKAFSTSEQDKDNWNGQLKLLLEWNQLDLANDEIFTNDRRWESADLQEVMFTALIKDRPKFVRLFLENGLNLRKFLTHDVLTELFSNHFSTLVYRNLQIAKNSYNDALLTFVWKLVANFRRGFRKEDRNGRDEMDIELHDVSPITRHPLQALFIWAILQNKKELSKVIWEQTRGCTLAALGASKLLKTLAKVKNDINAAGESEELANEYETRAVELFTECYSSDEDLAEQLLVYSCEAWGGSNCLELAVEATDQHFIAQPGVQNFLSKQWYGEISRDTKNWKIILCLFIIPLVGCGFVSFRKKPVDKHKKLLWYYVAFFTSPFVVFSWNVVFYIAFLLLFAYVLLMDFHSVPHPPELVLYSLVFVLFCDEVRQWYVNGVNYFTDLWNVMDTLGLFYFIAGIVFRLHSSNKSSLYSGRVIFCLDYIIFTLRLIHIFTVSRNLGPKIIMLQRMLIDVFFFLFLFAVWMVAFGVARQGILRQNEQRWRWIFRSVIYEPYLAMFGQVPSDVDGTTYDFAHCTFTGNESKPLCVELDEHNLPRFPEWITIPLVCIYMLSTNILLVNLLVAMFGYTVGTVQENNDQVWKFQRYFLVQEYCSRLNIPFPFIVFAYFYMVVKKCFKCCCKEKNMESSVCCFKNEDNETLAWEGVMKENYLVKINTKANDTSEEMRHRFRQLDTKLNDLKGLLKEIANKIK", "experiment": "hTRPM8 cell based agonist assay (section 1.1)", "conditions": "mammalian cell line stably expressing TRPM8", "excerpt": "The present compounds are useful as modulators of TRPM8. The activity of TRPM8 can be readily monitored in cell based assays using fluorescent calcium-sensitive dyes, membrane potential dyes, or sodium-sensitive dyes. The activity of TRPM8 can also be monitored with electrophysiological set-ups, such as patch-clamping and two-electrode voltage clamping. A mammalian cell line derivative which stably expresses TRPM8 was used in biological assays in association with testing the present compounds with cool-tasting or -feeling properties (Servant et al. US 2007/0259354 A1 and references cited therein). Typical compound concentrations tested were 100 μM, 50 μM, 10 μM, 1 μM, and 0.5 μM. The present compounds have shown strong activity as agonists of hTRPM8. Assay results for compounds are illustrated in Table 1 below. Specifically, the Compounds listed in Table 1.1, e.g., Compounds 1.A1 to Compounds 1.A9 are the specific compounds as described herein. For example, Compounds 1.A1 is Example 1.1."}, "Solubility in LSB": {"experiment": "Solubility in LSB", "assay_type": "physicochemical", "conditions": "Low Sodium Buffer (LSB), aqueous buffer"}, "panelists": {"test_system": "panelists", "experiment": "Sensory study, cooling line scale vs WS-3 (section 1.2)", "assay_type": "in vivo, human", "description": "Three typical sensory studies are described below each followed by a table summarizing sensory results of selected compounds of the invention (Tables 1.2 to 1.4).\nAll samples made with Low Sodium Buffer (LSB) pH ˜7.1 and contain 0.1% ethanol.\nCompounds are rated on a 15 point line scale where 45 μM WS-3 (N-Ethyl-p-menthane-3-carboxamide) is ranked as a 5 in cool intensity. In most cases our compounds are tested to determine at what concentration the cooling intensity is equivalent to 45 μM WS-3. In each test, the panelist is presented with a 0 μM control sample, a 45 μM WS-3 control sample and the experimental compound sample and asked to rate the cooling intensity of each sample. Panelists are also asked to rate bitterness. In the table below there was no significant bitterness detected unless otherwise noted. Also, in the table below, n represents the number of tests completed for a given experiment (#panelists×#repetitions)."}},
  "data": [
    {"smiles": "CC1=NN(CC(=O)c2ccccc2)C(=O)C1(C)C1CCCCC1", "note": "(centres unmarked) [Example 1.1, 4-cyclohexyl-3,4-dimethyl-1-(2-oxo-2-phenylethyl)-1H-pyrazol-5(4H)-one]", "values": [
      {"measurement": "EC50", "setting": "hTRPM8", "result": 34, "unit": "nM"},
      {"measurement": "hTRPM8 EC50 Ratio", "setting": "hTRPM8", "result": 100.0},
      {"measurement": "solubility", "setting": "Solubility in LSB", "result": 337, "unit": "µM"},
      {"measurement": "Average Cooling", "setting": "panelists; Table 1.2, 5 μM, 15 point line scale, n = 30", "result": 4.7},
      {"measurement": "Sensory Results", "setting": "panelists; compound concentration compared in cooling intensity with 45 uM WS-3, LSB pH ~7.1, 0.1% ethanol", "result": 5, "unit": "uM~45 uM WS-3"}
    ]}
  ]
}
